In US20230159527A1, “COMPOUNDS AS BCL-2 INHIBITORS” (Fochon Pharmaceuticals, Ltd., priority 2020, published 2023):

The compounds below were run on Toledo cells (assay: Cell proliferation assay, Toledo cells (MTS, 72 h)). Details: Homo sapiens, Toledo cells, MTS, read-out: Toledo IC50.
Assay type: cell-based
Experimental: MTS testing kit was purchased from Promega (Madison, Wis., USA). The RPMI-1640, Fetal bovine serum and Penicillin-Streptomycin were purchased from BI (Biological Industries, Beit Haemek, Israel). Dimethyl sulfoxide (DMSO) was purchased from Sigma (St. Louis, Mo., USA). Toledo (ATCC catalog #: CRL-2631) cells were cultured in RPMI-1640 supplemented with Penicillin-Streptomycin and 10% FBS.
To investigate whether a compound is able to inhibit the activity of BCL-2 in cells, a mechanism-based assay using Toledo lines was developed. In this assay, the inhibition of BCL-2 was reflected by the inhibition of cell proliferation of Toledo cells. Cells were plated into 96-well plates at the optimized cell density of 30000 cells/well. Plates were incubated at 37° C., with 5% CO2 for 4h. Compounds were serially diluted and added to the plates with the final concentrations of 10000, 3333.3, 1111.1, 370.4, 123.5, 41.2, 13.7, 4.6 and 1.5 nM. Plates were incubated at 37° C., with 5% CO2 for 72 h. 20 μl MTS was added into each well and the plates were incubated at 37° C., with 5% CO2 for exactly 2 h. The absorbance was measured by a microplate reader at 490 nm. IC50 was calculated using GraphPad Prism 5.0 software.

| SMILES | IC50 |
| --- | --- |
| CC(C)c1ccccc1[C@@H]1CSCCN1C1CC2(CCN(c3ccc(C(=O)NS(=O)(=O)c4cc5c(c([N+](=O)[O-])c4)N[C@@H]([C@H]4CC[C@](C)(O)CC4)CO5)c(Oc4cnc5[nH]cc(F)c5c4)c3)CC2)C1 (single isomer, unassigned) [Example D-78, 2-((3-fluoro-1H-pyrrolo[2,3-b]pyridin-5-yl)oxy)-N-(((S)-3-((1r,4S)-4-hydroxy-4-methylcyclohexyl)-5-nitro-3,4-dihydro-2H-benzo[b] [1,4]oxazin-7-yl)sulfonyl)-4-(2-((R or S)-3-(2-isopropylphenyl)thiomorpholino)-7-azaspiro[3.5]nonan-7-yl)benzamide] | 1 nM |
| CC(C)c1ccccc1[C@@H]1CCC[C@@H]1N1CC2(CCN(c3ccc(C(=O)NS(=O)(=O)c4cnc(NC[C@H]5CC[C@](C)(O)CC5)c([N+](=O)[O-])c4)c(Oc4cc5cc[nH]c5nc4Cl)c3)CC2)C1 (relative stereo) [Example A-159, 2-((6-chloro-1H-pyrrolo[2,3-b]pyridin-5-yl)oxy)-N-((6-((((1r,4r)-4-hydroxy-4-methylcyclohexyl)methyl)amino)-_ 5-nitropyridin-3-yl)sulfonyl)-4-(2-((1S,2S or 1R,2R)-2-(2-isopropylphenyl)cyclo-pentyl)-2,7-diazaspiro[3.5]nonan-7-yl) benzamide] | 1 nM |
| CC(C)c1ccccc1[C@@H]1CCCN1C1CC2(CCN(c3ccc(C(=O)NS(=O)(=O)c4cc5c(c([N+](=O)[O-])c4)N[C@@H]([C@H]4CC[C@](C)(O)CC4)CO5)c(Oc4cc5cc[nH]c5nc4OC[C@@H]4COCCN4C(=O)OC(C)(C)C)c3)CC2)C1 (single isomer, unassigned) [Example D-215, tert-butyl (S)-3-(((5-(2-((((S)-3-((1r,4S)-4-hydroxy-4-methylcyclohexyl)-5-nitro-3,4-dihydro-2H-benzo[b][1,4]oxazin-7-yl)sulfonyl)carbamoyl)-5-(2-((R or S)-2-(2-isopropylphenyl)pyrrolidin-1-yl)-7-azaspiro[3.5]nonan-7-yl)phenoxy)-1H-pyrrolo[2,3-b]pyridin-6-yl)oxy)methyl) morpholine-4-carboxylate] | 1 nM |
| CC(C)c1ccccc1[C@@H]1CCCN1C1CC2(CCN(c3ccc(C(=O)NS(=O)(=O)c4cc5c(c([N+](=O)[O-])c4)N[C@@H]([C@H]4CC[C@](C)(O)CC4)CO5)c(Oc4cc5cc[nH]c5nc4N4CCC4)c3)CC2)C1 (single isomer, unassigned) [Example D-183, 2-((6-(azetidin-1-yl)-1H-pyrrolo [2,3-b]pyridin-5-yl)oxy)-N-(((S)-3-((1r,4S)-4-hydroxy-4-methylcyclohexyl)-5-nitro-3,4-dihydro-2H-benzo[b][1,4]oxazin-7-yl)sulfonyl)-4-(2-((R or S)-2-(2-isopropylphenyl)pyrrolidin-1-yl)-7-azaspiro[3.5]nonan-7-yl)benzamide] | 1 nM |
| CC(C)c1ccccc1[C@@H]1CCCN1C1CC2(CCN(c3ccc(C(=O)NS(=O)(=O)c4cc5c(c([N+](=O)[O-])c4)N[C@@H]([C@H]4CC[C@](C)(O)CC4)CO5)c(Oc4cc5cc[nH]c5nc4N4CCOCC4)c3)CC2)C1 (single isomer, unassigned) [Example D-57, N-(((S)-3-((1r,4S)-4-hydroxy-4-methylcyclohexyl)-5-nitro-3,4-dihydro-2H-benzo[b][1,4]oxazin-7-yl)sulfonyl)-4-(2-((R or S)-2-(2-isopropylphenyl)pyrrolidin-1-yl)-7-azaspiro[3.5]nonan-7-yl)-2-((6-morpholino-1H-pyrrolo [2,3-b]pyridin-5-yl)oxy)benzamide] | 1 nM |
| CC(=O)N1CCN(C2CC3(CCN(c4ccc(C(=O)NS(=O)(=O)c5cc6c(c([N+](=O)[O-])c5)N[C@@H]([C@H]5CC[C@](C)(O)CC5)CO6)c(Oc5cnc6[nH]cc(F)c6c5)c4)CC3)C2)[C@H](c2ccccc2C(C)C)C1 (single isomer, unassigned) [Example D-140, 4-(2-((R or S)-4-acetyl-2-(2-isopropylphenyl)piperazin-1-yl)-7-azaspiro[3.5]nonan-7-yl)-2-((3-fluoro-1H-pyrrolo [2,3-b]pyridin-5-yl)oxy)-N-(((S)-3-((1r,4S)-4-hydroxy-4-methylcyclohexyl)-5-nitro-3,4-dihydro-2H-benzo[b][1,4]oxazin-7-yl)sulfonyl)benzamide] | 1 nM |
| CC(C)c1ccccc1[C@@H]1CCCN1C1CC2(CCN(c3ccc(C(=O)NS(=O)(=O)c4cc5c(c([N+](=O)[O-])c4)N[C@H]([C@H]4CC[C@H](O)CC4)CO5)c(Oc4cnc5[nH]cc(F)c5c4)c3)CC2)C1 (single isomer, unassigned) [Example D-42, 2-((3-fluoro-1H-pyrrolo[2,3-b]pyridin-5-yl)oxy)-N-(((R)-3-((1r,4R)-4-hydroxycyclohexyl)-5-nitro-3,4-dihydro-2H-benzo[b][1,4]oxazin-7-yl)sulfonyl)-4-(2-((R or S)-2-(2-isopropylphenyl)pyrrolidin-1-yl)-7-azaspiro[3.5]nonan-7-yl)benzamide] | 1 nM |
| CC(C)c1ccccc1[C@@H]1CCCN1C1CC2(CCN(c3ccc(C(=O)NS(=O)(=O)c4cc5c(c([N+](=O)[O-])c4)S[C@@H]([C@H]4CC[C@](C)(O)CC4)CO5)c(Oc4cnc5[nH]cc(F)c5c4)c3)CC2)C1 (single isomer, unassigned) [Example E-2, 2-((3-fluoro-1H-pyrrolo[2,3-b]pyridin-5-yl)oxy)-N-(((S)-3-((1r,4S)-4-hydroxy-4-methylcyclohexyl)-5-nitro-2,3-dihydrobenzo[b][1,4]oxathiin-7-yl)sulfonyl)-4-(2-((R or S)-2-(2-isopropylphenyl)pyrrolidin-1-yl)-7-azaspiro[3.5]nonan-7-yl)benzamide] | 1 nM |
| CC(C)c1ccccc1[C@@H]1CCCN1C1CC2(CCN(c3ccc(C(=O)NS(=O)(=O)c4cc5c(c([N+](=O)[O-])c4)N[C@@H]([C@H]4CC[C@](C)(O)CC4)CO5)c(Oc4cc5cc[nH]c5nc4OC[C@@H](C)O)c3)CC2)C1 (single isomer, unassigned) [Example D-69, N-(((S)-3-((1r,4S)-4-hydroxy-4-methylcyclohexyl)-5-nitro-3,4-dihydro-2H-benzo[b][1,4]oxazin-7-yl)sulfonyl)-2-((6-((7)-2-hydroxypropoxy)-1H-pyrrolo[2,3-b]pyridin-5-yl)oxy)-4-(2-((R or S)-2-(2-isopropylphenyl)pyrrolidin-1-yl)-7-azaspiro[3.5]nonan-7-yl)benzamide] | 1 nM |
| CC(C)c1ccccc1[C@@H]1CN(S(=O)(=O)C2CC2)CCN1C1CC2(CCN(c3ccc(C(=O)NS(=O)(=O)c4cc5c(c([N+](=O)[O-])c4)N[C@@H]([C@H]4CC[C@](C)(O)CC4)CO5)c(Oc4cnc5[nH]cc(F)c5c4)c3)CC2)C1 (single isomer, unassigned) [Example D-81, 4-(2-((R or S)-4-(cyclopropylsulfonyl)-2-(2-isopropylphenyl)piperazin-1-yl)-7-azaspiro[3.5]nonan-7-yl)-2-((3-fluoro-1H-pyrrolo[2,3-b]pyridin-5-yl)oxy)-N-(((S)-3-((1r,4S)-4-hydroxy-4-methylcyclohexyl)-5-nitro-3,4-dihydro-2H-benzo[b][1,4]oxazin-7-yl)sulfonyl)benzamide] | 1 nM |
| CC(C)c1ccccc1[C@H]1CCCN1C1CC2(CCN(c3ccc(C(=O)NS(=O)(=O)c4cc5c(c([N+](=O)[O-])c4)NC([C@@H]4COCCO4)CO5)c(Oc4cnc5[nH]cc(F)c5c4)c3)CC2)C1 (single isomer, unassigned) [Example D-49a, N-(((R or S)-3-((R)-1,4-dioxan-2-yl)-5-nitro-3,4-dihydro-2H-benzo[b][1,4]oxazin-7-yl)sulfonyl)-2-((3-fluoro-1H-pyrrolo[2,3-b]pyridin-5-yl)oxy)-4-(2-((R or S)-2-(2-isopropylphenyl)pyrrolidin-1-yl)-7-azaspiro[3.5]nonan-7-yl)benzamide] | 1 nM |
| CC(C)c1ccccc1[C@@H]1CCCN1C1CC2(CCN(c3ccc(C(=O)NS(=O)(=O)c4cc5c(c([N+](=O)[O-])c4)N[C@@H]([C@H]4CC[C@](C)(O)CC4)CO5)c(Oc4cc5cc[nH]c5nc4OC[C@H](C)O)c3)CC2)C1 (single isomer, unassigned) [Example D-70, N-(((S)-3-((1r,4S)-4-hydroxy-4-methylcyclohexyl)-5-nitro-3,4-dihydro-2H-benzo[b][1,4]oxazin-7-yl)sulfonyl)-2-((6-((S)-2-hydroxypropoxy)-1H-pyrrolo[2,3-b]pyridin-5-yl)oxy)-4-(2-((R or S)-2-(2-isopropylphenyl)pyrrolidin-1-yl)-7-azaspiro[3.5]nonan-7-yl)benzamide] | 1 nM |

Same assay, conditions: Homo sapiens, Toledo, read-out: Toledo IC50 (nM)

| SMILES | IC50 |
| --- | --- |
| CC(C)c1ccccc1[C@@H]1COCCN1C1CC2(CCN(c3ccc(C(=O)NS(=O)(=O)c4cc5c(c([N+](=O)[O-])c4)N[C@@H]([C@H]4CC[C@](C)(O)CC4)CO5)c(Oc4cnc5[nH]cc(Br)c5c4)c3)CC2)C1 (single isomer, unassigned) [Example D-3, 2-((3-bromo-1H-pyrrolo[2,3-b]pyridin-5-yl)oxy)-N-((S)-3-((1r,4S)-4-hydroxy-4-methylcyclohexyl)-5-nitro-3,4-dihydro-2H-benzo [b][1,4]oxazin-7-yl)sulfonyl)-4-(2-((R or S)-3-(2-isopropylphenyl)morpholino)-7-azaspiro[3.5]nonan-7-yl) benzamide] | 1 nM |
